“And” between values parts separate entries of the source, which are not always exact repeats. Identical values can stand only once.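 Grown in 96-well plates, cells were treated for 48 hours with each compound at five concentrations. Insufficient inhibition: endpoint recorded as highest concentration tested. GI50: concentration for 50% inhibition of growth. TGI marks complete inhibition of growth.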
System: HL-60(TB) leukemia
Assay: DTP human tumour cell line panel, 48 h

Row | SMILES | GI50 | TGI
1 | CN(C)c1cc(NN=C(c2ccc(O)cc2)c2ccc(O)cc2)c([N+](=O)[O-])cc1[N+](=O)[O-] | 4.98 µM | 55.8 µM
2 | CC1(COc2ccc3c(c2)ncn3-c2ccc3cccc(N4CCC(N)CC4)c3n2)COC1 | 1.82 µM and 1.8 µM | 4.54 µM and 4.49 µM
3 | COc1cc(-c2ccc3cc(OC)c(OC)c(OC)c3c2)cc(OC)c1OC | > 100 µM | > 100 µM
4 | CCOC(=O)C1=C(C)N(c2ccc(F)cc2F)[C@]2(C#N)C(O)=C(Cl)C(Cl)=C(O)[C@]12C#N | > 100 µM | > 100 µM
5 | Cc1csc(-c2nnc(Nc3ccc(Oc4ncccc4-c4ccnc(N)n4)cc3)c3ccccc23)c1 | 2.16 µM | > 100 µM
6 | COc1cc(C2CC(C)(O)Oc3cc4c(cc32)OCO4)cc(OC)c1OC (stereo unspecified) | – | 0.638 µM
7 | CCCCCCCCCCn1cc[n+](C)c1 | 0.226 µM | 1.7 µM
8 | O=C(CCCSc1nc(-c2ccccc2)cc(-c2ccccc2)n1)NO | 2.48 µM | 6.39 µM
9 | CC1SC(c2ccc(F)cc2)N(NC(=O)C(O)c2ccccc2)C1=O (stereo unspecified) | > 100 µM | > 100 µM
10 | O=C(Oc1ccc(Cl)cc1)c1ccccc1Nc1ccnc(C(F)(F)F)c1 | 6.48 µM | > 100 µM
11 | COCCOc1ccc(-c2nc3ccc(-c4nc5ccc(N6CCN(C)CC6)cc5[nH]4)cc3[nH]2)cc1 | 1.62 µM | 91.8 µM
12 | Nc1n[nH]c2cccc(C#Cc3cccc(C(=O)Nc4ccc(CN5CCOCC5)c(C(F)(F)F)c4)c3)c12 | 1.17 µM | 5 µM
13 | COc1ccc(-c2cn[nH]c2-c2cc(OC)c(OC)c(OC)c2)cc1 | 0.0249 µM | 0.0671 µM
14 | CCC(=C/[C@H](C)C/C=C/C(C)=C/[C@@H](C)C(=O)[C@@H](C)[C@H](O)[C@@H](C)CC)/C=C/[C@H]1OC(=O)C=C[C@@H]1C | < 0.01 µM | 1.77 µM
15 | Nc1ccccc1SC(CC(=O)c1ccccc1)c1cccc([N+](=O)[O-])c1 (stereo unspecified) | 17.3 µM | 40.1 µM
16 | O=C1CCCCN1c1ccccc1C#C/C=C\C#Cc1ccccc1C(F)(F)F | 1.27 µM | 3.29 µM
17 | CN1CC[C@@H](NC(=O)Nc2ccc(C#N)cc2)C[C@@H]1c1nc2ccccc2[nH]1 | > 100 µM | > 100 µM
18 | COc1ccc2nc(NC(=O)CSc3nnc4n3S(=O)(=O)c3ccccc3N4c3ccccc3)sc2c1 | 91.5 µM | > 100 µM
19 | Cc1ccc(-n2c3nc(=O)[nH]c(=O)c-3cc3cc([N+](=O)[O-])ccc32)cc1 | 3.98 µM | > 100 µM
20 | O=C1NC(=NC(CO)Cc2ccccc2)S/C1=C\c1ccc2ncccc2c1 (stereo unspecified) | 9.76 µM and 3.88 µM | > 25 µM and 14.3 µM
21 | COc1cc(/C(C#N)=C/c2nc3c(N4CCOCC4)nc(Cl)nc3n2C)cc(OC)c1OC | < 0.01 µM | < 0.01 µM
22 | Cc1nnc(NC(=O)c2nc(S(=O)(=O)Cc3ccc(F)cc3)ncc2Cl)s1 | 2.6 µM | 4.73 µM
23 | Nc1c(C(=O)Nc2cccc(C(F)(F)F)c2)sc2nc3c(cc12)CCCCC3 | 15.6 µM | > 100 µM
24 | CCCOc1cc2ccccc2cc1C(=O)Nc1nc(N)c2c(ccc3nccc32)[nH]1 | 0.0307 µM | 0.229 µM
25 | CC1(C)OC1COc1c2occc2cc2ccc(=O)oc12 (stereo unspecified) | – | > 100 µM

System: HOP-62 NSCLC
Assay: DTP human tumour cell line panel, 48 h

Row | SMILES | TGI | GI50
26 | CC(=O)CC(OC(C)=O)C1=CCC2C(CC1C)OC(=O)C2C (stereo unspecified) | > 100 µM | –
27 | O=C(/C(=C/c1ccc([N+](=O)[O-])cc1)SCc1ccccc1)c1ccc(Cl)cc1 | 17.7 µM | 4.52 µM
28 | C[C@]12CCC3c4ccc(O)cc4CCC3C1CC[C@@]2(O)CNC(=O)/C=C/c1ccc(O)c(O)c1 (stereo partly specified) | 22.6 µM | 6.78 µM
29 | O=C(O)c1ccc2c(c1C(=O)O)C(=O)OC2(c1ccc(O)cc1)c1ccc(O)cc1 | > 100 µM | –
30 | CCN(Cc1ccc(F)cc1)c1cc(Cl)c(CO)c(Cl)c1 | 27.2 µM | 14 µM
31 | COc1ccc(/C=N/NC(=O)c2cccc3cc[nH]c23)cc1O | > 100 µM | 11.2 µM
32 | N#Cc1c[nH]n2c(N=Nc3ccc(Cl)cc3)c(O)nc12 | > 100 µM | 62.7 µM
33 | CN(C)c1cc(NN=C(c2ccc(O)cc2)c2ccc(O)cc2)c([N+](=O)[O-])cc1[N+](=O)[O-] | 26.1 µM | 10.5 µM
34 | CC1(COc2ccc3c(c2)ncn3-c2ccc3cccc(N4CCC(N)CC4)c3n2)COC1 | 6.59 µM and 9.02 µM | 1.74 µM and 1.49 µM
35 | O=S(=O)(c1ccccc1)N1CCN(S(=O)(=O)c2ccccc2)c2ccccc21 | > 100 µM | –
36 | COc1cc(-c2ccc3cc(OC)c(OC)c(OC)c3c2)cc(OC)c1OC | 75.4 µM | 16.1 µM
37 | CCOC(=O)C1=C(C)N(c2ccc(F)cc2F)[C@]2(C#N)C(O)=C(Cl)C(Cl)=C(O)[C@]12C#N | > 100 µM | > 100 µM
38 | Cc1csc(-c2nnc(Nc3ccc(Oc4ncccc4-c4ccnc(N)n4)cc3)c3ccccc23)c1 | > 100 µM | 4.4 µM
39 | COc1cc(C2CC(C)(O)Oc3cc4c(cc32)OCO4)cc(OC)c1OC (stereo unspecified) | > 100 µM | –
40 | CCCCCCCCCCn1cc[n+](C)c1 | 17.5 µM | 3.16 µM
41 | O=C(CCCSc1nc(-c2ccccc2)cc(-c2ccccc2)n1)NO | 4.4 µM | 0.671 µM
42 | CC1SC(c2ccc(F)cc2)N(NC(=O)C(O)c2ccccc2)C1=O (stereo unspecified) | > 100 µM | > 100 µM

Row | SMILES | TGI | GI50
43 | COCCOc1ccc(-c2nc3ccc(-c4nc5ccc(N6CCN(C)CC6)cc5[nH]4)cc3[nH]2)cc1 | 14.5 µM | 1.56 µM
44 | Nc1n[nH]c2cccc(C#Cc3cccc(C(=O)Nc4ccc(CN5CCOCC5)c(C(F)(F)F)c4)c3)c12 | 10.1 µM | 2.88 µM
45 | COc1ccc(-c2cn[nH]c2-c2cc(OC)c(OC)c(OC)c2)cc1 | 33.7 µM | 0.0352 µM
46 | CCC(=C/[C@H](C)C/C=C/C(C)=C/[C@@H](C)C(=O)[C@@H](C)[C@H](O)[C@@H](C)CC)/C=C/[C@H]1OC(=O)C=C[C@@H]1C | 1.01 µM | < 0.01 µM
47 | Nc1ccccc1SC(CC(=O)c1ccccc1)c1cccc([N+](=O)[O-])c1 (stereo unspecified) | 28.9 µM | 15.5 µM
48 | O=C1CCCCN1c1ccccc1C#C/C=C\C#Cc1ccccc1C(F)(F)F | 2.94 µM | 0.899 µM
49 | CN1CC[C@@H](NC(=O)Nc2ccc(C#N)cc2)C[C@@H]1c1nc2ccccc2[nH]1 | > 100 µM | > 100 µM
50 | COc1ccc2nc(NC(=O)CSc3nnc4n3S(=O)(=O)c3ccccc3N4c3ccccc3)sc2c1 | > 100 µM | 2.14 µM
51 | Cc1ccc(-n2c3nc(=O)[nH]c(=O)c-3cc3cc([N+](=O)[O-])ccc32)cc1 | 11.8 µM | 2.57 µM
52 | O=C1NC(=NC(CO)Cc2ccccc2)S/C1=C\c1ccc2ncccc2c1 (stereo unspecified) | > 25 µM | > 23.4 µM and 6.05 µM
53 | COc1cc(/C(C#N)=C/c2nc3c(N4CCOCC4)nc(Cl)nc3n2C)cc(OC)c1OC | 12.9 µM | < 0.01 µM
54 | Cc1nnc(NC(=O)c2nc(S(=O)(=O)Cc3ccc(F)cc3)ncc2Cl)s1 | 39.3 µM | 19.8 µM
55 | Cn1ccc2c3c(Oc4ccc(NC(N)=O)cc4)ccnc3ccc21 | > 100 µM | > 100 µM
56 | CCCOc1cc2ccccc2cc1C(=O)Nc1nc(N)c2c(ccc3nccc32)[nH]1 | 2.69 µM | 0.0798 µM
57 | CC1(C)OC1COc1c2occc2cc2ccc(=O)oc12 (stereo unspecified) | > 100 µM | –
58 | CCCCCCCCCCCCC(O)c1ccc(C#CCCCCCCCCCO)o1 (stereo unspecified) | 35.5 µM | 20.1 µM
59 | COc1ccc(CCN=C2NC(=O)/C(=C/c3ccc4ncccc4c3)S2)cc1 | > 25 µM | > 25 µM

Source: PubChem BioAssay (NCI)
